Several values for one entry are separate records, joined by “and”; a condition that tells them apart may be missing. Identical values can stand only once.
Tests used:
endogenous CD8+ T cells = assay: Flow cytometry of endogenous CD8+ T cells in spleen, LN, tumor (Figure 2F-G, S1F-I); assay type: in vivo, mouse; details: for Frequencies of endogenous CD8⁺ T cells in LN: Supplemental Figure 1I left; for Number of endogenous CD8⁺ T cells in LN: Supplemental Figure 1I right; for CD8 gate number: representative flow plot
Description: C57BL/6 mice were subcutaneously injected with 5 × 10^5 B16-OVA melanoma cells. Five days after tumor implantation, mice received an intravenous infusion of 2 × 10^6 in vitro–differentiated Th9 cells (cultured for 5 days), which were derived from OT-II CD45.1 donor mice, accompanied by 4 × 10^5 OVA peptide–pulsed DCs via the tail vein. To enhance T cell engraftment and facilitate lymphodepletion, a single intraperitoneal injection of cyclophosphamide (200 mg/kg, Sigma, catalog C0768) was administered 1 day prior to T cell transfer. Mice were euthanized at designated time points for the collection and analysis of spleens, tumor-draining lymph nodes, and tumor tissues.
Details regarding staining panels (human and mouse), reagents (including clones and catalog numbers), acquisition settings, compensation/controls, and analysis procedures are provided in Supplemental Methods.
BioLegend, Cat. No. 422301 or Mouse TruStain FcX™, BioLegend, Cat. No. 101319) for 10 minutes at 4°C. For surface marker detection, cells were stained with fluorochrome-conjugated monoclonal antibodies in 96-well V-bottom plates and incubated on ice for 30 minutes. After staining, cells were washed twice and resuspended in FACS buffer for analysis.
Prior to intracellular cytokine staining, cells were restimulated for 4 hours with PMA (Absin, Cat. No. abs9107), ionomycin (Sigma-Aldrich, Cat. No. I0634), and brefeldin A (MedChemExpress, Cat. No. HY-16592). For intracellular cytokine staining, cells were first surface-stained as described above, then fixed and permeabilized using the BD Cytofix/Cytoperm™ kit (BD Biosciences, Cat. No. 554714) according to the manufacturer ’s protocol. Intracellular proteins were stained with directly conjugated antibodies targeting IL-9, IL-17a, IL-4, IFN-γ, TNF-α, FOXP3, p-ZAP70, Perforin, and […]
Antibodies used for mouse samples included those against IL-9 (PE, clone RM9A4, Biolegend, Cat. No. 514104), IFN-γ (PE, clone XMG1.2, Biolegend, Cat. No.
Cat. No. 103138), CD4 (APC/Cy7, clone E-AB-F1353UJ, Elabscience, Cat. No.
AF18028), CD8α (PerCP/Cy5.5, clone E-AB-F1104UJ, Elabscience, Cat. No. […]
clone E-AB-F1187UH, Elabscience, Cat. No. AF19854), TNF-α (BV421, clone MP6-XT22, Biolegend, Cat. No. 506328), FOXP3 (PE, clone FJK-16s, eBioscience, Cat. No.
Perforin (APC, clone S16009A, Biolegend, Cat. No. 154303) and Granzyme B (APC, […]
clone QA16A02, Biolegend, Cat. No. 372203). […]
Figure S1. EpA enhances immune responses. […]
I) Representative flow-cytometric plots of endogenous CD4⁺ and CD8⁺ T cells in spleens (F), LNs (G), and tumors (H); frequencies and absolute numbers of endogenous CD4⁺ (G) and CD8⁺ (I) T cells in LNs are quantified. (J and K) […]
Statistical analysis was performed using two-way ANOVA with Tukey’s post hoc test (A), one-way ANOVA with Tukey’s post hoc test (B) or two-tailed unpaired Student’s t-test (D and G–M). ns, not significant. *p < 0.05, **p < 0.01, ****p < 0.0001.
(also on this page, place not known: Mouse weight (g) CtrlEpA CtrlEpA CtrlEpA0 I CD45.1+ T cells (%) CtrlEpA CD4+ T cells (%) CtrlEpA CtrlEpA CtrlEpA FSC CD8 CD8 FSC FSC FSC BNumber of CD45.1+ T cells (×103 per mgĎ Number of CD4+ T cells (×104 per mgĎ DC (%)NK cells (%) NK cells (%) DC (%) Number of DC (×103 per mg) Number of NK cells (×105) Number of NK cells (×103 per mg) Number of DC (×105) FSC FSC FSC CD8 CtrlEpA CtrlEpA CtrlEpA CD8+ T cells (%) Number of CD8+ T cells (×104 per mgĎ nsns ns nsns ns 40 IL-6 (pg/ml)) […]

Raji-luciferase tumor = assay: Raji-luciferase xenograft, bioluminescence tumor radiance (Figure 8J-K); assay type: in vivo, NSG mice; details: EpA-treated human Th9 CAR T cells 2 × 10^6 i.v.; n = 5; result in words
Text: Representative plots (A) and quantification (B) (n = 4). (C) Quantitative PCR analysis of IL9, IRF4, and SPI1 mRNA expression in human Th9 cells (n = 3). (D) Flow-cytometric analysis of mitochondrial membrane potential in human Th9 cells (n = 3). (E) Luciferase-based assay analysis of intracellular ATP levels in human Th9 cells (n = 5). (F) Flow-cytometric analysis of phosphorylated ZAP70 in human Th9 cells (n = 3). (G) Flow-cytometric analysis of TNF-α expression in human Th9 cells (n = 4). (H) Cytotoxicity assay of EpA-treated or control CD19 CAR Th9 cells against Raji lymphoma target cells at indicated effector-to-target (E/T) ratios (n = 3). (I) Schematic diagram of the in vivo Raji-luciferase xenograft model in NSG mice receiving control or EpA-treated human Th9 CAR T cells. (J and K) Representative bioluminescence imaging (J) and quantification of tumor radiance (K) in NSG mice at indicated time points after adoptive transfer. […] Statistical significance was determined using 2-tailed unpaired Student’s t test (B–H), 2-way ANOVA followed by Šidák’s post hoc test (K), and log-rank test (L). […]
For xenograft models, M-NSG mice were intravenously inoculated with 1 × 10^6 Raji-CD19 tumor cells. […] Tumor progression and immune cell infiltration were subsequently monitored according to experimental endpoints.

[1] = spleens, individual mice, n = 4

anteiso-C15 Leu7 surfactin [EpA]
Frequencies of endogenous CD8⁺ T cells in LN (endogenous CD8+ T cells; LN, replicate 1): 31.6 | Frequencies of endogenous CD8⁺ T cells in LN (endogenous CD8+ T cells; LN, replicate 2): 27.8 | Frequencies of endogenous CD8⁺ T cells in LN (endogenous CD8+ T cells; LN, replicate 3): 36.5 | Frequencies of endogenous CD8⁺ T cells in LN (endogenous CD8+ T cells; LN, replicate 4): 27.9 | Number of endogenous CD8⁺ T cells in LN (endogenous CD8+ T cells; LN, replicate 1): 49988.9 | Number of endogenous CD8⁺ T cells in LN (endogenous CD8+ T cells; LN, replicate 2): 41201.1 | Number of endogenous CD8⁺ T cells in LN (endogenous CD8+ T cells; LN, replicate 3): 21505.6 | Number of endogenous CD8⁺ T cells in LN (endogenous CD8+ T cells; LN, replicate 4): 20877.6 | CD8 gate number (endogenous CD8+ T cells; LN, Figure S1G): 36.5 | CD8 gate number (endogenous CD8+ T cells; Spleen, Figure S1F): 34.5 | CD8 gate number (endogenous CD8+ T cells; Tumor, Figure S1H): 54.0 | endogenous CD8+ T cell frequency (endogenous CD8+ T cells; lymph nodes, result in words): modest frequency increase | endogenous CD8+ T cell total numbers (endogenous CD8+ T cells; lymph nodes, result in words): unchanged total numbers | endogenous CD8+ T cell frequency and number (endogenous CD8+ T cells; spleens and tumors, result in words): markedly increased in both frequency and absolute number | endogenous CD8 (%) (endogenous CD8+ T cells; [1]): 30.4% and 27.2% and 30.6% and 34.5% | number of CD8 T cells (endogenous CD8+ T cells; [1]): 3878238 and 3825743 and 3962312 and 3201124 | endogenous CD8 T cells (%) (endogenous CD8+ T cells; tumors, individual mice, n = 4): 54% and 34.7% and 36.8% and 55.2% | number of endogenous CD8 T cells (endogenous CD8+ T cells; tumors, individual mice, n = 4): 176 and 424 and 563 and 172 | tumor burden (Raji-luciferase tumor): markedly reduced tumor burden
